Values after ≈ are worked out from the molar mass of the structure shown. Like-named read-outs stand apart in the source and are kept apart here. Where a SMILES comes first, the peptide text is derived from it. Where no end group is shown, it is not given here.
Experiments:
[1] = Antibacterial effect (MIC) after incubation in blood, plasma or saline; type: cell-based; details: for MIC in blood: 1 mg/ml added to whole human blood (EDTA); for MIC in plasma after 8 h / MIC in plasma at 48 h: human plasma; for MIC in plasma after 8 h / MIC in saline after 8 h / MIC in blood after 8 h: 8 h incubation at 37°C; for MIC in plasma at 48 h / MIC in saline at 48 h / MIC in blood at 48 h: 48 h incubation at 37°C; for MIC in blood after 8 h / MIC in blood at 48 h: whole human blood (EDTA), 1 mg/ml; for MIC in blood compared to saline (fold higher): whole human blood vs saline
Protocol: To test whether the antibacterial effect of the bacteriocins was reduced in blood, an assay was performed where whole blood was collected from two healthy volunteers, with EDTA as an anticoagulant. Directly after blood sampling each bacteriocin was added to a concentration of 1mg/ml. […] Samples were collected at specific time points and bacteriocin activity was determined using the standard MIC assay as previously described ([Holo et al., 1991]). The experiment was repeated three times and the error bars represent the standard deviation.
The presented MIC values are the average of three experiments. Each bacteriocin was added to whole human blood to reach a concentration of 1 mg/ml. […] RT is short for room temperature.

E. faecium = details: three parallels
Protocol: (§1) Unless otherwise specified the bacterial strains were grown in brain heart infusion (BHI) medium (Oxoid) at 37°C under aerobic conditions without shaking.
(§2) The peptides were stored at −20°C until use. The amino acid sequences of the bacteriocins are […] RPVA and […] […] Bacteriocin activity was determined using a microtiter assay as previously described ([Holo et al., 1991]).

[2] = tested on: E. faecium LMGT 20705 and E. faecium 42 ACA-D6 0237; experiment: Effect of autoclaving on antibacterial activity, E. faecium; type: cell-based, Enterococcus faecium; details: in MilliQ water with 0.1% TFA, standard autoclaving; MIC against E. faecium LMGT 20705 and 42 ACA-D6 0237
Text: (§3) A pre-requisite for intravenous administration is complete sterility of the compound ([Paese et al., 2017]). The simplest manner to achieve this is through autoclaving. However, this can cause degradation of the compound and therefore be detrimental to the antibacterial effect. Also, if the compound is degraded into unknown constituents this may cause unintended interactions. Therefore, we exposed the bacteriocins to a standard autoclaving procedure.
(§4) Each bacteriocin was solved in MilliQ water with 0.1% TFA and then autoclaved. […] Strains: 20705 is short for E. faecium LMGT 20705; 0237 for E. faecium 42 ACA-D6 0237; D6 for E. faecalis D6; and MMH594 for E. faecalis MMH594.

[3] = tested on: bacteriocin-resistant enterococcal cells (eep-mutants); details: colonies from inhibition zones of spot-on-lawn assay; 'mostly above'; cross-resistant
Protocol: Bacteriocin resistant mutants were obtained by a spot-on-lawn assay, where liquid bacteriocin was spotted on a lawn of indicator cells, using 10μl of bacteriocin in concentrations 0.5–5 mg/ml. The plates were incubated at 30°C overnight and resistant colonies were selected from the inhibition zones and re-streaked on new plates for isolated colonies. Pure cultures were made and stored in 15% glycerol at −80°C. The eep gene was PCR amplified and sequenced with specific primers: eep in E. faecium was amplified using primers Eepf4F + Eepf4R and sequenced using primers Eepf1R - Eepf6R and Eepf1F - Eepf6F. eep in E. faecalis was amplified using primers Eepfa1R + Eepfa3F and sequenced using primers Eepfa1R - Eepfa3R, Eepf1R - Eepf3R and Eepfa1F - Eepfa3F.
The samples were sent to GATC Biotech, Germany for sequencing. MIC of the resistant mutants was scored using a microtiter assay as previously described ([Holo et al., 1991]).

human erythrocytes = experiment: Haemolysis assay; details: for Visual haemolysis (redness of supernatant compared to saline): 1 mg/ml in saline; for Visual haemolysis (redness of supernatant compared to saline) / Haemolysis of erythrocytes: 37°C; for Haemolysis of erythrocytes: 0.01, 0.1 and 1 mg/ml in saline, washed human erythrocytes (two volunteers, pooled), 1 h, supernatant absorbance 540 nm, repeated three times
Protocol: To assess the haemolytic effect whole blood was drawn from two healthy human volunteers, pooled and distributed in 1 ml aliquots. The aliquots were spun down at 1,000 × g for 5 min at 4°C to separate erythrocytes from plasma. The erythrocytes were washed three times with saline (0.9% NaCl) and resuspended in 100 μl saline. […] SDS in saline was added as a control, since bacteriocins were solved in saline. The samples were incubated at 37°C for 1 h and then spun down again to remove intact erythrocytes. The supernatant was measured for absorbance at 540 nm in order to measure degree of haemolysis. […] The experiment was repeated three times to allow for statistical analysis.
Whole human blood was mixed with each bacteriocin in saline to a final concentration of 1, 0.1, and 0.01 mg/ml. The samples were incubated at 37°C before the erythrocytes were spun down and the supernatant was read at OD540.

[4] = tested on: E. faecium wildtype and eep-mutant strains; experiment: Lysozyme tolerance MIC assay; type: cell-based, Enterococcus faecium
Protocol: To test for lysozyme tolerance the wild type and mutant strains were grown over night and subjected to a standard MIC assay as previously described with twofold dilutions of lysozyme ([Holo et al., 1991]). In addition, a spot-on-lawn assay was performed with 10 μl 250 mg/ml lysozyme spotted on a lawn of cells.

E. faecalis = details: MIC = at least 50% growth inhibition, three parallels
Protocol: as §1, §2

[5] = tested on: E. faecalis D6 and E. faecalis MMH594; experiment: Effect of autoclaving on antibacterial activity, E. faecalis; type: cell-based, Enterococcus faecalis; details: in MilliQ water with 0.1% TFA, standard autoclaving; MIC against E. faecalis D6 and MMH594
Text: as §3, §4

[6] = starting value (time not given), average of three experiments

## CC1(C)S[C@@H]2[C@H](NC(=O)[C@H](N)c3ccccc3)C(=O)N2[C@H]1C(=O)O [Ampicillin, reference compound]
[1]; [6]
  MIC in blood: 1.56 µg/mL (≈ 4.46 µM)
[1]; 48 h incubation at 37°C in blood and similar conditions
  Loss of activity after 48 h incubation: fourfold

## CC[C@H](C)[C@H](NC(=O)[C@H](CCC(=O)O)NC(=O)[C@H](Cc1ccc(O)cc1)NC(=O)[C@H](CCC(N)=O)NC(=O)[C@@H](NC(=O)[C@H](CC(C)C)NC(=O)[C@H](CCCCN)NC(=O)[C@H](CCCCN)NC(=O)[C@@H](NC(=O)[C@@H](NC(=O)[C@@H](NC(=O)CNC(=O)[C@@H](NC(=O)[C@@H]1CCCN1C(=O)[C@H](CC(N)=O)NC(=O)[C@H](Cc1ccccc1)NC(=O)[C@H](CCCCN)NC(=O)[C@H](Cc1ccccc1)NC(=O)[C@H](CCCCN)NC(=O)[C@@H](N)CCSC)[C@@H](C)O)[C@@H](C)O)[C@@H](C)CC)C(C)C)[C@@H](C)O)C(=O)N[C@@H](C)C(=O)N[C@@H](Cc1c[nH]c2ccccc12)C(=O)N[C@@H](Cc1ccccc1)C(=O)N[C@@H](CCCCN)C(=O)N[C@@H](CC(N)=O)C(=O)N[C@@H](CCCCN)C(=O)N[C@@H](Cc1c[nH]cn1)C(=O)NCC(=O)N[C@@H](Cc1ccc(O)cc1)C(=O)N[C@@H](Cc1ccc(O)cc1)C(=O)N1CCC[C@H]1C(=O)N[C@@H](Cc1c[nH]c2ccccc12)C(=O)N[C@@H](CCC(=O)O)C(=O)N[C@H](C(=O)N1CCC[C@H]1C(=O)N[C@@H](CCCNC(=N)N)C(=O)N[C@@H](CS)C(=O)O)[C@@H](C)CC [EntK1, enterocin K1] (H-MKFKFNPTGTIVKKLTQYEIAWFKNKHGYYPWEIPRC-OH; N-terminus and C-terminus assumed)
E. faecium; strain E1469 (N, nosocomial), MIC = at least 50% growth inhibition
  MIC of EntK1: 0.39 µg/mL
E. faecium; strain E3160 (N, nosocomial), MIC = at least 50% growth inhibition
  MIC of EntK1: 0.39 µg/mL
E. faecium; strain E3449 (N, nosocomial), MIC = at least 50% growth inhibition
  MIC of EntK1: 0.39 µg/mL
E. faecium; strain E6072 (N, nosocomial), MIC = at least 50% growth inhibition
  MIC of EntK1: 0.19 µg/mL
E. faecium; strain E6094 (N, nosocomial), MIC = at least 50% growth inhibition
  MIC of EntK1: 0.39 µg/mL
E. faecium; strain E6856 (N, nosocomial), MIC = at least 50% growth inhibition
  MIC of EntK1: 0.39 µg/mL
E. faecium; strain E7195 (N, nosocomial), MIC = at least 50% growth inhibition
  MIC of EntK1: 0.39 µg/mL
E. faecium; strain E7422 (N, nosocomial), MIC = at least 50% growth inhibition
  MIC of EntK1: 0.19 µg/mL
E. faecium; strain E7660 (N, nosocomial), MIC = at least 50% growth inhibition
  MIC of EntK1: 0.39 µg/mL
E. faecium; strain E8150 (N, nosocomial), MIC = at least 50% growth inhibition
  MIC of EntK1: 0.78 µg/mL
E. faecium; strain LMGT 20705 (L, laboratory), MIC = at least 50% growth inhibition
  MIC of EntK1: <0.048 µg/mL
E. faecium; strain P21 (L, laboratory), MIC = minimum concentration inhibiting growth by at least 50% vs control, 200 μl culture
  MIC of EntK1: <0.048 µg/mL
[2]
  Effect of autoclaving on MIC: did not affect
[3]
  MIC against cells from resistant colonies: above 25 μg/ml
Human erythrocytes
  Visual haemolysis (redness of supernatant compared to saline): did not cause haemolysis
  Haemolysis of erythrocytes: non-haemolytic
[1]; [6]
  MIC in blood: 0.78 µg/mL (≈ 0.171 µM)
[1]; 1 mg/ml in saline, first value (time not given), indicator strain not stated, average of three experiments
  MIC in saline: 0.19 µg/mL (≈ 0.0416 µM)
[1]; added to human plasma, starting value (time not given), average of three experiments
  MIC in plasma: 0.78 µg/mL (≈ 0.171 µM)
[1]; average of three experiments
  MIC in plasma after 8 h: 0.78 µg/mL (≈ 0.171 µM)
  MIC in plasma at 48 h: 1.56 µg/mL (≈ 0.342 µM)
  MIC in saline after 8 h: stayed at the same level
  MIC in saline at 48 h: 0.39 µg/mL (≈ 0.0854 µM)
  MIC in blood after 8 h: approximately 1.56 μg/ml
  MIC in blood at 48 h: 3.125 µg/mL (≈ 0.685 µM)
[1]; same at all time points, 37°C
  MIC ratio blood to plasma: 2 ×
  MIC ratio plasma to saline: 2 ×
[1]; 37°C
  MIC in blood compared to saline (fold higher): 4 ×

## CCCCCCCCCCCCOS(=O)(=O)[O-].[Na+] [SDS, reference compound]
Human erythrocytes
  Visual haemolysis (redness of supernatant): complete haemolysis

## Lysozyme
[4]; E. faecium 7422c.522del (M, eep-mutant)
  Lysozyme MIC: 1950 µg/mL
[4]; E. faecium 7422c.C64A (M, eep-mutant)
  Lysozyme MIC: 1950 µg/mL
[4]; E. faecium E7422 (WT)
  Lysozyme MIC: 15630 µg/mL
[4]; E. faecium P21 (WT), twofold dilutions of lysozyme
  Lysozyme MIC: 15630 µg/mL
[4]; E. faecium P21c.G716A (M, eep-mutant)
  Lysozyme MIC: 980 µg/mL
[4]; E. faecium P21c.ins7 (M, eep-mutant)
  Lysozyme MIC: 980 µg/mL
[4]; E. faecium P21c.ins23 (M, eep-mutant)
  Lysozyme MIC: 980 µg/mL
[4]; E. faecium P21c.ins43 (M, eep-mutant)
  Lysozyme MIC: 980 µg/mL
[4]; wildtype strains P21 and E7422
  Lysozyme MIC, wildtype strains: 15630 µg/mL

## MLAKIKAMIKKFPNPYTLAAKLTTYEINWYKQQYGRYPWERPVA [EntEJ97, enterocin EJ97]
E. faecalis; strain 62 (L, laboratory)
  MIC of EntEJ97: 1.56 µg/mL
E. faecalis; strain D6 (L, laboratory)
  MIC of EntEJ97: 0.39 µg/mL
E. faecalis; strain HH22 (N, nosocomial)
  MIC of EntEJ97: 1.56 µg/mL
E. faecalis; strain MMH594 (N, nosocomial)
  MIC of EntEJ97: 0.39 µg/mL
E. faecalis; strain Merz96 (N, nosocomial)
  MIC of EntEJ97: 0.78 µg/mL
E. faecalis; strain OG1RF (L, laboratory)
  MIC of EntEJ97: 0.78 µg/mL
E. faecalis; strain Symbioflor (B, probiotic)
  MIC of EntEJ97: 0.39 µg/mL
E. faecalis; strain T3 (N, nosocomial)
  MIC of EntEJ97: 0.39 µg/mL
E. faecalis; strain TX0104 (N, nosocomial)
  MIC of EntEJ97: 0.39 µg/mL
E. faecalis; strain V583 (N, nosocomial; carries EntEJ97 immunity gene)
  MIC of EntEJ97: >25 µg/mL
[3]
  MIC against cells from resistant colonies: above 25 μg/ml
Human erythrocytes
  Visual haemolysis (redness of supernatant compared to saline): did not cause haemolysis
  Haemolysis of erythrocytes: non-haemolytic
[1]; average of three experiments
  MIC in plasma after 8 h: 0.78 µg/mL
  MIC in plasma at 48 h: 1.56 µg/mL
  MIC in saline after 8 h: 0.39 µg/mL
  MIC in saline at 48 h: 0.78 µg/mL
  MIC in blood after 8 h: 1.56 µg/mL
  MIC in blood at 48 h: 3.125 µg/mL
[1]; 37°C
  MIC in blood compared to saline (fold higher): 2 ×
[5]
  Effect of autoclaving on MIC: did not affect
